Assay results reported in paper PMC7044277 (Nature Communications, 2020).
Where “and” joins values, the source holds several entries; their conditions need not be identical. Equal values may be shown once.

Assays:
Type in all cases: cell-based
[1] = target: T1, 320 non-olfactory GPCRs (Homo sapiens, UniProt Q9P1P5); settings: receptor TAAR2; replicate values, Fig_4g
T1 construct: expressed in transfected cells; host or cells: HTLA cells

[2] = target: 320 non-olfactory GPCRs (Homo sapiens, UniProt P30872); settings: receptor SSTR1; replicate values, Fig_4g
[3] = target: DRD2 (D2 long receptor) (Homo sapiens, UniProt P14416); experiment: β-arrestin2 recruitment (Tango), HTLA cells; settings: for Response, Fig_S11c dose-response: individual replicates
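Wherever GPCRome agonism screen response is given: fold over basal response of each receptor without drug.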

T1 sequence (Q9P1P5 whole entry): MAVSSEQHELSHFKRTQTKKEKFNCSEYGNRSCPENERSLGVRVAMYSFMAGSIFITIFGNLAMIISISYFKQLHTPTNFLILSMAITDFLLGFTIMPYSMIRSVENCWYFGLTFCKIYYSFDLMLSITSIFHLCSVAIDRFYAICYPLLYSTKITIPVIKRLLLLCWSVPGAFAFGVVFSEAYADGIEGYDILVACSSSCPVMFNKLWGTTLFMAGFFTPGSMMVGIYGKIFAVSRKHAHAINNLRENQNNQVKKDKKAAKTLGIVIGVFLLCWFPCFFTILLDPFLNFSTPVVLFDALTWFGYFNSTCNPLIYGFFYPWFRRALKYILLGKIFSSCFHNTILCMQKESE
Chain of DRD2 (D2 long receptor) (P14416 whole entry): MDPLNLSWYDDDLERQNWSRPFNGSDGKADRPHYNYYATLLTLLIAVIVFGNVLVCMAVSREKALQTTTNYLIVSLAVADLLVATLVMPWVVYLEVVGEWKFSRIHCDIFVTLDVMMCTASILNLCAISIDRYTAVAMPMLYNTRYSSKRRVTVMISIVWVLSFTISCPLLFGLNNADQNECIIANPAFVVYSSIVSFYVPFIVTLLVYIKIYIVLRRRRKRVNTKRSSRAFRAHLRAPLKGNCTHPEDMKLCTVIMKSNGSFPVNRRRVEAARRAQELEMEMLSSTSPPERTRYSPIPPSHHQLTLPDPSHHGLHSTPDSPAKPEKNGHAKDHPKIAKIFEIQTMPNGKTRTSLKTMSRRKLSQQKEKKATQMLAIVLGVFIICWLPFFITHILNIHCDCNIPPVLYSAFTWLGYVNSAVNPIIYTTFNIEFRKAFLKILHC
Chain of 320 non-olfactory GPCRs (Homo sapiens, UniProt P30872) (P30872 whole entry): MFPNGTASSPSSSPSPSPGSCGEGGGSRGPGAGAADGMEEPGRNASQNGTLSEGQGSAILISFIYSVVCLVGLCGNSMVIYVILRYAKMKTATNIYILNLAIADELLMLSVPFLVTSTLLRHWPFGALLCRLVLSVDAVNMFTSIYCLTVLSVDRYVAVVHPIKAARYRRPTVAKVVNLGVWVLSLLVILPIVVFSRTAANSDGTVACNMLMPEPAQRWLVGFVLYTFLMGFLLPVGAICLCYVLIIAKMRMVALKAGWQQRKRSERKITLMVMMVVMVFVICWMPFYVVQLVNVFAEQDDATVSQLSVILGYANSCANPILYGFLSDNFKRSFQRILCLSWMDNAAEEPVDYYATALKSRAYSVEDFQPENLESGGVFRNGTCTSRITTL

CCOc1cccc2cc(C(C)NCC3(O)CCCCC3)oc12 (centres unmarked) [O4LE6]
GPCRome agonism screen response [1]: 2.656 and 0.9121 and 0.6733 and 0.6661
GPCRome agonism screen response [2]: 1.245 and 0.3022 and 1.123 and 1.305
EC50 ([3]; DRD2, β-arrestin2 recruitment (Tango), read-out: EC50 ± SEM): 43.2 ± 12.3 nM
response, Fig_S11c dose-response source data ([3]; Fig_S11c, Log[Drug] -5, replicate values): 112.633 and 105.275 and 98.5438 and 105.099 and 112.565
response, Fig_S11e dose-response source data ([3]; Log[Drug] -6.52, replicate values): 78.7922
response, Fig_S11e dose-response source data ([3]; Log[Drug] -7, replicate values): 72.0078 and 74.6368 and 66.9645 and 59.2359 and 63.6719 and 58.7266 and 59.326 and 73.941 and 65.8379
response, Fig_S11e dose-response source data ([3]; Log[Drug] -7.52, replicate values): 37.8418 and 44.9592 and 58.6118 and 43.0054 and 55.0074 and 48.586 and 48.419 and 72.5528 and 64.0624
response, Fig_S11e dose-response source data ([3]; Log[Drug] -8, replicate values): 15.3268 and 15.1148 and 16.7449 and 27.4037 and 26.6311 and 23.8074 and 19.9269 and 24.9446 and 21.2413
response, Fig_S11e dose-response source data ([3]; Log[Drug] -8.52, replicate values): 4.375 and 3.995 and 5.741 and 6.567 and 6.611 and 6.201 and 5.912 and 5.884 and 4.408
response, Fig_S11e dose-response source data ([3]; Log[Drug] -9, replicate values): 3.657 and 3.173 and 3.675 and 2.9749 and 3.073 and 3.47 and 2.665 and 3.951 and 5.063
response, Fig_S11e dose-response source data ([3]; Log[Drug] -9.52, replicate values): 2.783 and 2.8126 and 2.809 and 2.846 and 2.583 and 2.72 and 1.765 and 1.2028 and 2.471
response, Fig_S11e dose-response source data ([3]; Log[Drug] -10, replicate values): 3.027 and 2.494 and 2.707 and 2.723 and 2.793 and 2.57 and 1.765 and 1.586 and 1.567
response, Fig_S11e dose-response source data ([3]; Log[Drug] -10.52, replicate values): 2.869 and 2.577 and 2.7076 and 2.741 and 2.285 and 2.767 and 1.576 and 1.95 and 2.499
response, Fig_S11e dose-response source data ([3]; Log[Drug] -11, replicate values): 2.286 and 2.31 and 2.497 and 2.358 and 2.303 and 2.397 and 3.984 and 1.567 and 2.499
response, Fig_S11e dose-response source data ([3]; Log[Drug] -11.52, replicate values): 2.417 and 3.403 and 2.6551 and 2.344 and 2.523 and 2.357 and 1.752 and 2.8723 and 2.669
response, Fig_S11e dose-response source data ([3]; Log[Drug] -12, replicate values): 2.236 and 2.366 and 2.369 and 2.676 and 2.167 and 2.127 and 2.148 and 1.023 and 3.799
Emax ([3]; HTLA, read-out: Emax relative to quinpirole response, DRD2, Tango): 105%
β-arrestin2 recruitment response at DRD2 (source data, replicate values) ([3]; Log[Drug] -6.52): 78.7922
Response, Fig_S11c dose-response ([3]; Log[Drug] -6.52): 78.7922
β-arrestin2 recruitment response at DRD2 (source data, replicate values) ([3]; Log[Drug] -7): 72.0078 and 74.6368 and 66.9645 and 59.2359 and 63.6719 and 58.7266 and 59.326 and 73.941 and 65.8379
Response, Fig_S11c dose-response ([3]; Log[Drug] -7): 72.0078 and 74.6368 and 66.9645 and 59.2359 and 63.6719 and 58.7266 and 59.326 and 73.941 and 65.8379
β-arrestin2 recruitment response at DRD2 (source data, replicate values) ([3]; Log[Drug] -7.52): 37.8418 and 44.9592 and 58.6118 and 43.0054 and 55.0074 and 48.586 and 48.419 and 72.5528 and 64.0624
Response, Fig_S11c dose-response ([3]; Log[Drug] -7.52): 37.8418 and 44.9592 and 58.6118 and 43.0054 and 55.0074 and 48.586 and 48.419 and 72.5528 and 64.0624
β-arrestin2 recruitment response at DRD2 (source data, replicate values) ([3]; Log[Drug] -8): 15.3268 and 15.1148 and 16.7449 and 27.4037 and 26.6311 and 23.8074 and 19.9269 and 24.9446 and 21.2413
Response, Fig_S11c dose-response ([3]; Log[Drug] -8): 15.3268 and 15.1148 and 16.7449 and 27.4037 and 26.6311 and 23.8074 and 19.9269 and 24.9446 and 21.2413
β-arrestin2 recruitment response at DRD2 (source data, replicate values) ([3]; Log[Drug] -8.52): 4.375 and 3.995 and 5.741 and 6.567 and 6.611 and 6.201 and 5.912 and 5.884 and 4.408
Response, Fig_S11c dose-response ([3]; Log[Drug] -8.52): 4.375 and 3.995 and 5.741 and 6.567 and 6.611 and 6.201 and 5.912 and 5.884 and 4.408
β-arrestin2 recruitment response at DRD2 (source data, replicate values) ([3]; Log[Drug] -9): 3.657 and 3.173 and 3.675 and 2.9749 and 3.073 and 3.47 and 2.665 and 3.951 and 5.063
Response, Fig_S11c dose-response ([3]; Log[Drug] -9): 3.657 and 3.173 and 3.675 and 2.9749 and 3.073 and 3.47 and 2.665 and 3.951 and 5.063
β-arrestin2 recruitment response at DRD2 (source data, replicate values) ([3]; Log[Drug] -9.52): 2.783 and 2.8126 and 2.809 and 2.846 and 2.583 and 2.72 and 1.765 and 1.2028 and 2.471
Response, Fig_S11c dose-response ([3]; Log[Drug] -9.52): 2.783 and 2.8126 and 2.809 and 2.846 and 2.583 and 2.72 and 1.765 and 1.2028 and 2.471
β-arrestin2 recruitment response at DRD2 (source data, replicate values) ([3]; Log[Drug] -10): 3.027 and 2.494 and 2.707 and 2.723 and 2.793 and 2.57 and 1.765 and 1.586 and 1.567
Response, Fig_S11c dose-response ([3]; Log[Drug] -10): 3.027 and 2.494 and 2.707 and 2.723 and 2.793 and 2.57 and 1.765 and 1.586 and 1.567
β-arrestin2 recruitment response at DRD2 (source data, replicate values) ([3]; Log[Drug] -10.52): 2.869 and 2.577 and 2.7076 and 2.741 and 2.285 and 2.767 and 1.576 and 1.95 and 2.499
Response, Fig_S11c dose-response ([3]; Log[Drug] -10.52): 2.869 and 2.577 and 2.7076 and 2.741 and 2.285 and 2.767 and 1.576 and 1.95 and 2.499
β-arrestin2 recruitment response at DRD2 (source data, replicate values) ([3]; Log[Drug] -11): 2.286 and 2.31 and 2.497 and 2.358 and 2.303 and 2.397 and 3.984 and 1.567 and 2.499
Response, Fig_S11c dose-response ([3]; Log[Drug] -11): 2.286 and 2.31 and 2.497 and 2.358 and 2.303 and 2.397 and 3.984 and 1.567 and 2.499
β-arrestin2 recruitment response at DRD2 (source data, replicate values) ([3]; Log[Drug] -11.52): 2.417 and 3.403 and 2.6551 and 2.344 and 2.523 and 2.357 and 1.752 and 2.8723 and 2.669
Response, Fig_S11c dose-response ([3]; Log[Drug] -11.52): 2.417 and 3.403 and 2.6551 and 2.344 and 2.523 and 2.357 and 1.752 and 2.8723 and 2.669
β-arrestin2 recruitment response at DRD2 (source data, replicate values) ([3]; Log[Drug] -12): 2.236 and 2.366 and 2.369 and 2.676 and 2.167 and 2.127 and 2.148 and 1.023 and 3.799
Response, Fig_S11c dose-response ([3]; Log[Drug] -12): 2.236 and 2.366 and 2.369 and 2.676 and 2.167 and 2.127 and 2.148 and 1.023 and 3.799
